Patent US7138414B2, “Heterocyclically substituted benzoylureas, process for their preparation and their use as pharmaceuticals” (Sanofi-Aventis Deutschland GmbH, priority 2002, dated 2006)

Columns and labels:
[1] = target: T1, human glycogen phosphorylase a (Homo sapiens, UniProt P06737); experiment: Glycogen phosphorylase a activity test (reverse direction, release of inorganic phosphate); format: biochemical; conditions: 10 μM test substance, duplicate determinations, 40 min at room temperature
T1 sequence (P06737 2-847 limits assumed): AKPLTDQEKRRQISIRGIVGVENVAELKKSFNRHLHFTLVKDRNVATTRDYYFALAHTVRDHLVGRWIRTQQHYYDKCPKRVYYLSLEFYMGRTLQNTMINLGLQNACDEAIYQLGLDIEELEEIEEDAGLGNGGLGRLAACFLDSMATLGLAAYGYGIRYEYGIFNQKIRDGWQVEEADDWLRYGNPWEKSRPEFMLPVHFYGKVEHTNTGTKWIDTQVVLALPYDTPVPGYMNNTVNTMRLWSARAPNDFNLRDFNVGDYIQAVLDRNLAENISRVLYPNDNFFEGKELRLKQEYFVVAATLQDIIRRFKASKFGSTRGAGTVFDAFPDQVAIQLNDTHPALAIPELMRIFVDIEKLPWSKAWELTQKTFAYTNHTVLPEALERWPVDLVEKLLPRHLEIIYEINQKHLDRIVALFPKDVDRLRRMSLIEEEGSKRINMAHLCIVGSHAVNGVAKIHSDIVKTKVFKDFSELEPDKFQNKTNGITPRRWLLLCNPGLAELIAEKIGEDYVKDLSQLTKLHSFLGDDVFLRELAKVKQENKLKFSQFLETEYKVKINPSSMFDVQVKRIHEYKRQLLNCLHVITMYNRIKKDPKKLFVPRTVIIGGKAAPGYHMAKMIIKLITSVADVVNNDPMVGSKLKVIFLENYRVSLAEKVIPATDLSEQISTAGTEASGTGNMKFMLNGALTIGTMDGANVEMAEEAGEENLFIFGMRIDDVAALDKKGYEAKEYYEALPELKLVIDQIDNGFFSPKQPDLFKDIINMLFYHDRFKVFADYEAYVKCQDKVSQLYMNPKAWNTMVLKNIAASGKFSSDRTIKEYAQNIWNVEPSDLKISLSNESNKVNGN
Experimental: Glycogen Phophorylase a Activity Test
All reactions were carried out as duplicate determinations in 96-well microtiter plates (half area plates, Costar No. 3696), and the change in absorption as a consequence of the formation of the reaction product was measured at the wavelength specified below in a Multiskan Ascent Elisa Reader (Lab Systems, Finland).
In order to measure the GPa enzyme activity in the reverse direction, the conversion of glucose 1-phosphate to glycogen and inorganic phosphate was measured by the general method of Engers et al. (Engers H D, Shechosky S, Madsen N B, Can J Biochem 1970 July;48(7):746–754) with the following modifications: human glycogen phosphorylase a (for example containing 0.76 mg of protein/ml (Aventis Pharma Deutschland GmbH), dissolved in buffer solution E (25 mM β-glycerophosphate, pH 7.0, 1 mM EDTA and 1 mM dithiothreitol) was diluted to a concentration of 10 μg of protein/ml with buffer T (50 mM Hepes, pH 7.0, 100 mM KCl, 2.5 mM EDTA, 2.5 mM MgCl26H2O) and addition of 5 mg/ml of glycogen. Test substances were prepared as a 10 mM solution in DMSO and diluted to 50 μM with buffer solution T. To 10 μl of this solution were added 10 μl of 37.5 mM glucose dissolved in buffer solution T and 5 mg/ml of glycogen, and also 10 μl of a solution of human glycogen phosphorylase a (10 μg of protein/ml) and 20 μl of 2.5 mM glucose 1-phosphate. The base value of the activity of glycogen phosphorylase a in the absence of test substance was determined by adding 10 μl of buffer solution T (0.1% DMSO). The mixture was incubated at room temperature for 40 minutes and the released inorganic phosphate was determined by means of the general method of Drueckes et al. (al (Drueckes P, Schinzel R, Palm D, Anal Biochem 1995 Sep. 1;230(1):173–177) with the following modifications: 50 μl of a stop solution of 7.3 mM of ammonium molybdate, 10.9 mM of zinc acetate, 3.6% of ascorbic acid, 0.9% of SDS are added to 50 μl of the enzyme mixture. After 60 minutes of incubation at 45° C., the absorption was measured at 820 nm. To determine the background absorption, the stop solution was added immediately after the addition of the glucose 1-phosphate solution in a separate reaction. This test was carried out at a concentration of 10 μM of the test substance, in order to determine the respective inhibition of glycogen phosphorylase a by the test substance in vitro.

[2] = target: T1, human glycogen phosphorylase a; experiment: as above; format: biochemical; conditions: 10 μM test substance; duplicate determinations; 40 min at room temperature

Row | SMILES | melting point [°C] | % inhibition at 10 μM [1] [%] | IC50 at 10 μM [2] [µM] | % inhibition at 10 μM ([1]; 10 µM) [%]
1 | O=C(NC(=O)c1cc(F)c(F)cc1Cl)Nc1cc(F)ccc1N1CCC(C(=O)[O-])CC1.[Na+] | 160.9 | – | – | –
2 | O=C(NC(=O)c1cc(F)c(F)cc1Cl)Nc1ccc(-c2n[nH]c(O)n2)cc1OC(F)(F)F [Example 6f, 1-(2-chloro-4,5-difluorobenzoyl)-3-[2-trifluoromethoxy-4-(5-hydroxy-1H-[1,2,4]triazol-3-yl)phenyl]urea] | > 350 | 98 | – | –
3 | O=C(NC(=O)c1ccc(F)cc1Cl)Nc1ccccc1-c1nnc(O)o1 [Example 8d, 1-(2-chloro-4-fluorobenzoyl)-3-[2-(5-hydroxy-[1,3,4]oxadiazol-2-yl)phenyl]urea] | 229.7 | 100 | – | –
4 | COc1cc(-c2nnc(O)o2)ccc1NC(=O)NC(=O)c1cc(F)c(F)cc1Cl [Example 8e, 1-(2-chloro-4,5-difluorobenzoyl)-3-[4-(5-hydroxy-[1,3,4]oxadiazol-2-yl)-2-methoxyphenyl]urea] | 293.1 | 97 | – | –
5 | O=C(NC(=O)c1cc(F)c(F)cc1Cl)Nc1ccccc1-c1nnc(O)o1 [Example 8f, 1-(2-chloro-4,5-difluorobenzoyl)-3-[2-(5-hydroxy-[1,3,4]oxadiazol-2-yl)phenyl]urea] | 222.9 | 99 | – | –
6 | O=C(NC(=O)c1ccc(F)cc1Cl)Nc1ccccc1-c1nnco1 [Example 8g, 1-(2-chloro-4-fluorobenzoyl)-3-(2-[1,3,4]oxadiazol-2-ylphenyl)urea] | 204 | 98 | – | –
7 | O=C(NC(=O)c1cc(F)c(F)cc1Cl)Nc1ccccc1-c1nnco1 [Example 8h, 1-(2-chloro-4,5-difluorobenzoyl)-3-(2-[1,3,4]oxadiazol-2-ylphenyl)urea] | 199.6 | 100 | – | –
8 | CNc1nn(-c2ccc(NC(=O)NC(=O)c3ccc(F)cc3Cl)c(C)c2)c(=O)o1 [Example 9f, 1-(2-chloro-4-fluorobenzoyl)-3-(2-methyl-4-(5-methylamino-2-oxo-3H-[1,3,4]-oxadiazol-3-yl)phenyl)urea] | 198 | 54 | – | –
9 | O=C(NC(=O)c1ccc(F)cc1Cl)Nc1ccc(-c2noc(=O)[nH]2)cc1OC(F)(F)F [Example 11e, 1-(2-chloro-4-fluorobenzoyl)-3-[4-(5-oxo-4,5-dihydro-[1,2,4]oxadiazol-3-yl)-2-trifluoromethoxyphenyl]urea] | 230.1 | 98 | – | –
10 | O=C(NC(=O)c1ccc(F)cc1Cl)Nc1ccc(-c2noc(=O)[nH]2)cc1Cl [Example 11f, 1-(2-chloro-4-fluorobenzoyl)-3-[2-chloro-4-(5-oxo-4,5-dihydro-[1,2,4]oxadiazol-3-yl)phenyl]urea] | 243.6 | 98 | – | –
11 | O=C(NC(=O)c1cc(F)c(F)cc1Cl)Nc1ccccc1-c1ccc(C(=O)O)o1 [Example 13b, 5-{2-[3-(2-chloro-4,5-difluorobenzoyl)ureido]phenyl}furan-2-carboxylic acid] | 239.3 | 100 | – | –
12 | O=C(NC(=O)c1ccc(F)cc1Cl)Nc1ccccc1-c1ccc(C(=O)O)o1 [Example 13c, 5-{2-[3-(2-chloro-4-fluorobenzoyl)ureido]phenyl}furan-2-carboxylic acid] | 236.3 | 100 | – | –
13 | NC(=O)C1CCCN(c2ccc(F)cc2NC(=O)NC(=O)c2cc(F)c(F)cc2Cl)C1 (stereo not drawn) [Example 15c, 1-{2-[3-(2-chloro-4,5-difluorobenzoyl)ureido]-4-fluorophenyl}piperidine-3-carboxamide] | 216 | 0.3 | – | –
14 | O=C(NC(=O)c1cc(F)c(F)cc1Cl)Nc1cc(F)ccc1N1CCC(C(=O)O)CC1 [Example 16c, 1-{2-[3-(2-chloro-4,5-difluorobenzoyl)ureido]-4-fluorophenyl}piperidine-4-carboxylic acid] | 221.7 | – | – | –
15 | O=C(NC(=O)c1cc(F)c(F)cc1Cl)Nc1cc(F)ccc1N1CCCC(C(=O)O)C1 (stereo not drawn) [Example 17] | – | – | 0.01 | –
16 | COC(=O)C1CCN(c2ccc(Cl)cc2NC(=O)NC(=O)c2cc(F)c(F)cc2Cl)CC1 [Example 29] | – | – | 0.01 | –
17 | O=C(NC(=O)c1cc(F)c(F)cc1Cl)Nc1cc(Cl)ccc1N1CCCC(C(=O)O)C1 (stereo not drawn) [Example 31] | – | – | 0.01 | –
18 | CCN(CC)C(=O)C1CCCN(c2ccc(F)cc2NC(=O)NC(=O)c2cc(F)c(F)cc2Cl)C1 (stereo not drawn) [Example 37] | – | 3.9 | – | –
19 | CCN(CC)C(=O)C1CCCN(c2ccc(F)cc2NC(=O)NC(=O)c2ccc(F)cc2Cl)C1 (stereo not drawn) [Example 38] | – | 4.6 | – | –
20 | COC(=O)C1CCN(c2ccc(F)cc2NC(=O)NC(=O)c2cc(F)c(F)cc2Cl)CC1 [Example 39] | – | – | 0.01 | –
21 | COC(=O)C1CCN(c2ccc(F)cc2NC(=O)NC(=O)c2ccc(F)cc2Cl)CC1 [Example 40] | – | 4.6 | – | –
22 | O=C(NC(=O)c1ccc(F)cc1Cl)Nc1cc(C(F)(F)F)ccc1N1CCC(C(=O)O)CC1 [Example 43] | – | – | – | 0.15
23 | COC(=O)C1CCN(c2ccc(S(C)(=O)=O)cc2NC(=O)NC(=O)c2cc(F)c(F)cc2Cl)CC1 [Example 44] | – | 0.05 | – | –
24 | COC(=O)C1CCN(c2ccc(S(C)(=O)=O)cc2NC(=O)NC(=O)c2ccc(F)cc2Cl)CC1 [Example 45] | – | 0.8 | – | –
